From patent US20250170127A1, “RE-SENSITIZING MULTIDRUG-RESISTANT (MDR) GRAM-NEGATIVE BACTERIA TO COLISTIN USING IONOPHORES” (The Regents of the University of Colorado, a body corporate, priority 2022, published 2025)
Values joined by “and” are separate entries in the source; they are usually repeats but may differ in a detail not shown here. Equal values may be shown once.

What was measured:
[1] = tested on: E. coli AR-0493; test: Checkerboard broth microdilution assay with colistin; assay type: cell-based
Procedure: FIG. 2. […] AR-0493. Data represent the mean OD (600 nm) in two biological replicates.
To further confirm the synergistic effect of compound 3 and colistin, the checkerboard broth microdilution assay was performed (FIG. 2).
(§1) General Methods. MDR strains E. coli AR-0493, AR-0346, and AR-0538, Salmonella Enteritidis AR-0496, Salmonella Typhimurium AR-0635, K. pneumoniae AR-0497, A. baumannii AR-0300 and AR-0310 were all obtained from the CDC & FDA Antibiotic Resistance Isolate Bank. E. coli K-12 was a gift from the Copley lab (Department of MCD Biology, University of Colorado Boulder). HeLa cells were purchased from the ATCC. All bacterial strains were grown on trypticase soy agar supplemented with 5% sheep blood (BAP). Bacteria were then cultured in Luria-Bertani (LB) medium at 35° C. until they achieve the log phase before screening or antimicrobial testing using CAMHB media. MIC, MRC, and checkerboard analyses and mammalian growth inhibition analyses in Hela cells were performed as described previously. More details are given in Supporting information.

[2] = tested on: E. coli AR-0493; test: Minimum re-sensitizing concentration (MRC) in the presence of colistin; assay type: cell-based; details: in AR-0493
Procedure: These 10 compounds were tested for their MICs and minimum re-sensitizing concentrations (MRCs) in the presence colistin at 2 μg/mL in E. coli AR-0493.
The present inventors further conducted MRC screens of selected compounds from groups 2-5 in AR-0493. Compound were tested against AR-0493 with compound X+2 μg/mL Colistin.
All compounds were tested for their respective minimum resensitizing concentrations (MRCs) for colistin against E. coli. AR0493, a MDR strain from CDC and FDA Antibiotic Resistance Bank. […] For the symmetrical bisanilino series, 7a-p, electron-donating alkyl and alkoxy groups (entries 7a-g, Table 5) at various positions of the phenyl rings were investigated. […] Three asymmetric bisanilino analogs (7q-s, Table 5) were synthesized based on the SARs of the monoanilino analogs 8a-p (vide infra).
as §1

[3] = tested on: E. coli AR-0493; test: MIC, CLSI broth microdilution, substance alone; assay type: cell-based; details: Escherichia coli, AR0493, read-out: MIC
Procedure: A MDR E. coli strain AR-0493 (a.k.a., ATCC BAA-3170) was obtained from the CDC and FDA Antibiotic Resistance Bank and used for the initial screen. […] Considering the difficulties on the discovery of novel antimicrobial reagents against Gram-negative bacteria, we chose to screen the fragment-based library of 3,200 compounds from TimTec (Tampa, FL). […] The screen used a modified broth microdilution assay.
These 10 compounds were tested for their MICs and minimum re-sensitizing concentrations (MRCs) in the presence colistin at 2 μg/mL in E. coli AR-0493. […] To evaluate their toxicity in mammalian cells, the present inventors treated human epithelial adenocarcinoma HeLa cells with each compound at a wide range of concentrations. […]
as §1

[4] = tested on: HeLa cells; test: in vitro; assay type: cell-based, human; details: GI50 in HeLa / MRC in AR-0493
Procedure: (§2) These 10 compounds were tested for their MICs and minimum re-sensitizing concentrations (MRCs) in the presence colistin at 2 μg/mL in E. coli AR-0493. […] To evaluate their toxicity in mammalian cells, the present inventors treated human epithelial adenocarcinoma HeLa cells with each compound at a wide range of concentrations.
(§3) To evaluate the mammalian toxicity of these analogs, Applicants tested them in cell viability assay using human cervical adenocarcinoma HeLa cells. Their respective half maximal growth inhibition concentration (GI50) was calculated using KaleidaGraph. The selectivity index (SI) for each compound was also calculated as the ratio of their GI50 and MRC. […] Therefore, Applicants selected two bisanilino analogs, 7l and 7m, that bear chlorines at the meta- and para-positions, respectively, of the phenyl groups for further characterization studies. […]. […] Their mammalian toxicities were also evaluated, and SIs calculated. […] Applicants we next explored the scope of analogs 71 and 7m their colistin-potentiating activity in 8 different MDR Gram negative bacteria with diverse genetic backgrounds and resistance mechanisms (Table 7). All strains were obtained from CDC and FDA Antibiotic Resistance Bank. For example, E. coli AR-0493 and K. pneumoniae AR-0497 carry the plasmid that contains the most prevalent mcr-1 gene. E. coli AR-0538, Salmonella Typhimurium AR-0539 and AR-0635 contain the mcr-2, 3, and 4 genes, respectively. These genes encode the phosphoethanolamine transferase, which was originated form the chromosome of A. baumannii, such as AR-0310. […]. A. baumannii AR-0310 appears more sensitive to these two compounds and the MICs of colistin was reduced to 0.25 μg/mL.
as §1

[5] = in vitro; assay type: cell-based, human; details: human
Procedure: as §2, §3, §1

[6] = tested on: E. coli K-12; test: Colistin MIC in the absence or presence of RMA compound; assay type: cell-based; details: in the presence of 1 μg/mL of compound 3; E. coli K-12
Description: (§4) To investigate the scope of the colistin-potentiation effect of compound 3, the present inventors screened a panel of MDR Gram-negative bacteria obtained from the CDC and FDA Antibiotic Resistance Bank. These include a variety of Enterobacteriaceae spp., such as E. coli AR-0346 and AR-0538, K. pneumoniae AR-0497, Salmonella Enteritidis AR-0496, and Salmonella Typhimurium AR-0635. These strains all express the mcr genes (e.g., mcr-1, mcr-2, and mcr-4) and are resistant to colistin with its MICs of 8-16 μg/mL (Table 2). […] The only exception is Salmonella Typhimurium AR-0635, which expresses mcr-4 gene. […]. […]. Furthermore, the present inventors also tested the activity of colistin in the presence or absence of 1 μg/mL compound 3 in a wild-type E. coli K-12. […] The MICs of compound 3 in all these strains were >64 μg/mL, the highest concentration tested.
as §1

[7] = tested on: Salmonella Enteritidis AR-0496; test: as above; assay type: cell-based; details: Salmonella Enteritidis AR-0496
Description: as §4, §1

[8] = tested on: A. baumannii AR-0300; test: as above; assay type: cell-based
Description: as §4, §1

[9] = tested on: E. coli AR-0346; test: as above; assay type: cell-based; details: E. coli AR-0346
Description: as §4, §1

[10] = tested on: MDR Gram-negative bacteria; test: MICs across a panel of MDR Gram-negative bacteria (summary statements); assay type: cell-based
Description: as §4, §3, §1

[11] = tested on: P. aeruginosa AR-0768; test: Colistin MIC in the absence or presence of RMA compound; assay type: cell-based
Description: as §4

[12] = tested on: E. coli AR-0538; test: as above; assay type: cell-based; details: E. coli AR-0538
Description: as §4, §3, §1

[13] = tested on: K. pneumoniae AR-0497; test: as above; assay type: cell-based; details: K. pneumoniae AR-0497
Description: as §4, §3, §1

[14] = tested on: A. baumannii AR-0310; test: as above; assay type: cell-based
Description: as §4, §3, §1

[15] = tested on: Salmonella Typhimurium AR-0635; test: as above; assay type: cell-based; details: Salmonella Typhimurium AR-0635
Description: as §4, §3, §1

[16] = tested on: E. coli AR-0493; test: as above; assay type: cell-based; details: E. coli AR-0493
Description: as §4, §3, §1

[17] = in the presence of 1 μg/mL of compound 3
[18] = 1 μg/mL compound 3, almost all mcr-expressing Enterobacteriaceae strains of Table 2

Cc1cccc(Nc2nc3nonc3nc2Nc2cccc(C)c2)c1 [Compound 3]
fractional inhibitory concentration index (FICI) ([1]; compound and colistin, E. coli AR-0493): < 0.06
potentiation of colistin in checkerboard assay ([1]; mean OD (600 nm), FIG. 2): dose-dependent potentiation of colistin
MRC [2]: 0.5 µg/mL
MIC [3]: > 64 µg/mL
SI (Selective Index), ratio of GI50 and MRC [4]: 30
GI50 at 24 h [5]: 15 µg/mL
Colistin MIC (+3) [6]: 0.25 µg/mL
Folds of potentiation ([7]; 1 μg/mL of compound 3): 16 folds
Colistin MIC (+3) [7, 17]: 1 µg/mL
Folds of potentiation ([8]; 1 μg/mL of compound 3): 32 folds
Colistin MIC (+3) [8, 17]: 0.25 µg/mL
Folds of potentiation ([9]; 1 μg/mL of compound 3): 16 folds
Colistin MIC (+3) [9, 17]: 0.5 µg/mL
Colistin MIC (+3) [10, 18]: 0.5 to 1 µg/mL
folds of potentiation for colistin [10, 18]: 16 folds
MIC ([10]; compound alone, all strains of Table 2, highest concentration tested): > 64 µg/mL
Folds of potentiation ([11]; 1 μg/mL of compound 3): 4 folds
Colistin MIC (+3) [11, 17]: 4 µg/mL
Folds of potentiation ([12]; 1 μg/mL of compound 3): 16 folds
Colistin MIC (+3) [12, 17]: 0.5 µg/mL
Folds of potentiation ([13]; 1 μg/mL of compound 3): 16 folds
Colistin MIC (+3) [13, 17]: 0.5 µg/mL
Folds of potentiation ([14]; 1 μg/mL of compound 3): 32 folds
Colistin MIC (+3) [14, 17]: 0.5 µg/mL
Folds of potentiation ([15]; 2 μg/mL of compound 3): 16 folds
Colistin MIC (+3) [15, 17]: 4 µg/mL
Colistin MIC (+3) ([15]; in the presence of 2 μg/mL of compound 3): 1 μg/mL and 1^c μg/mL
Folds of potentiation ([16]; 1 μg/mL of compound 3): 16 folds
Colistin MIC (+3) [16, 17]: 1 µg/mL
